From patent US10064848B2, “Pyridic ketone derivatives, method of preparing same, and pharmaceutical application thereof” (Shanghai Hengrui Pharmaceutical Co., Ltd., priority 2013, dated 2018)

How the values were obtained:
[1] = target: T1, MAP2K2 (MEK2) Recombinant Human Protein (Homo sapiens, UniProt P36507); test: MEK2 kinase inhibition assay (Z'-LYTE, MEK2/ERK2 coupled); assay type: biochemical; conditions: recombinant human MEK2 with ERK2, Z'-LYTE, 1.5 hours at 25° C; read-out: IC50 for inhibiting MEK kinase (MEK2)
T1 construct: purchased Invitrogen PV3615 (MEK2); PV3314 (ERK2)
T1 sequence (P36507 whole entry): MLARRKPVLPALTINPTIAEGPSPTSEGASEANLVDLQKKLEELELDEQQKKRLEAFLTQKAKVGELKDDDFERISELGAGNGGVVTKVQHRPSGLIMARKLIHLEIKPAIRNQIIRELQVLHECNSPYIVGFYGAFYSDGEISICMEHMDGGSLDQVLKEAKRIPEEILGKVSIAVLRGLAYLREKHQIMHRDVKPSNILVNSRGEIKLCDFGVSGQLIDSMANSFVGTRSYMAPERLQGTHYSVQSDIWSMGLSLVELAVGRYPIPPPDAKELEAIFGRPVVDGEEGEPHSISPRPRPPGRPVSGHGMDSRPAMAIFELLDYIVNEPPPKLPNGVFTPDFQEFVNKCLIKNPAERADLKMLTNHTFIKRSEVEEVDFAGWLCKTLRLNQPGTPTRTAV
Description: MEK2 kinase activity was tested in vitro by the following method.
MEK kinase used in the assay:
MAP2K2 (MEK2) Recombinant Human Protein (Invitrogen, Catalog No. PV3615)
MAPK1 (ERK2) Recombinant Human Protein (Invitrogen, Catalog No. PV3314)
Kit used in the assay: Z′-LYTE™ Kinase Assay Kit-Ser/Thr 03 Peptide (Invitrogen, Catalog No. PV3176).
The following in vitro assay was used to determine the activity of the compounds of the present invention for inhibiting the […] MEK kinase. The test compound was dissolved in dimethyl sulfoxide to the desired concentration. 1× Buffer A (Invitrogen, Catalog No. PV3189) was prepared, ATP was diluted with 1× Buffer A to obtain 400 μM ATP solution, appropriate amounts of Z′-LYTE™ Ser/Thr 03 Peptide (Invitrogen, Catalog No. PV3200), MEK kinase (MEK 2) enzymes, (ERK2) enzymes and 1× Buffer A were mixed, and appropriate amounts of Z′-LYTE™ Ser/Thr 03 phosphoPeptide substrate (Invitrogen, Catalog No. PV3215) and 1× Buffer A were formulated into a mixture to be tested. The 4% DMSO solution of the test compound was prepared from 1× buffer and DMSO solution of the test compound. 2.5 μL DMSO solution of the test compound was added to a reaction well, and then 2.5 μL of 400 μM ATP solution, 5 μL of enzyme and substrate mixture were added to become a 10 μL reaction system. The reaction system was incubated for 1.5 hours at 25° C., and a mixture was prepared according to Reagent A:Buffer B=1:1024. 5 μL of a mixture of Reagent A (Invitrogen, Catalog No. PV3295) and Buffer B (Invitrogen, Item No. P3127) was added to a reaction well, the reaction system was incubated for 60 minutes at 25° C., and then the fluorescence was read by a NovoStar ELISA with excitation wavelength: 400 nm, and emission wavelength: 445 nm and 520 nm.
The above assay was used to determine the biochemical activity of the compounds of the present invention for inhibiting MEK kinase (MEK2).

[2] = tested on: HCT116 cell; test: Proliferation inhibition on human colon cancer cell HCT116 (CCK8); assay type: cell-based; conditions: HCT-116, HCT116, 72 hours
Source text: The following in vitro cell assay was used to determine the activity of the compounds of the present invention for inhibiting the proliferation of human colon cancer cell, and the activity is expressed as IC50.
Cell line which was used in the experiment: HCT116 (Cell Bank of the Chinese Academy of Sciences, Catalog No. TCHu99).
General programs of this kind of assay were as follows: First, the cell line to be tested was inoculated in a 384-well culture plate with a suitable cell concentration of 1000 cells/well, and was cultured in an incubator under the conditions of 37° C. and 5% CO2, then grown overnight. The medium was replaced by new medium added with a series of concentrations (1000 nM, 250 nM, 62.50 nM, 15.63 nM, 3.91 nM, 0.98 nM, 0.24 nM, 0.06 nM, 0.015 nM, 0.004 nM) of the test compound solutions. The plates were placed back in the incubator, and continuously cultured for 72 hours. After 72 hours, CCK8 (Cell Counting Kit-8, Catalog No.: CK04, purchased from colleagues chemical company) method was used to determine the proliferation inhibition activity of the test compounds. IC50 values were calculated from the inhibition data of the test compounds at a series of different concentrations.
The above assay was used to determine the biochemical activity of the compounds of the present invention.

[3] = target: T2, MEK1 (Recombinant Human Protein) (Homo sapiens, UniProt Q02750); test: MEK1 kinase inhibition assay (Z'-LYTE Kinase Assay Kit-Ser/Thr 03 Peptide); assay type: biochemical; conditions: 4 hours at 37° C, read-out: IC50 for inhibiting MEK kinase (MEK1)
T2 construct: purchased Invitrogen PV3093
T2 sequence (Q02750 whole entry): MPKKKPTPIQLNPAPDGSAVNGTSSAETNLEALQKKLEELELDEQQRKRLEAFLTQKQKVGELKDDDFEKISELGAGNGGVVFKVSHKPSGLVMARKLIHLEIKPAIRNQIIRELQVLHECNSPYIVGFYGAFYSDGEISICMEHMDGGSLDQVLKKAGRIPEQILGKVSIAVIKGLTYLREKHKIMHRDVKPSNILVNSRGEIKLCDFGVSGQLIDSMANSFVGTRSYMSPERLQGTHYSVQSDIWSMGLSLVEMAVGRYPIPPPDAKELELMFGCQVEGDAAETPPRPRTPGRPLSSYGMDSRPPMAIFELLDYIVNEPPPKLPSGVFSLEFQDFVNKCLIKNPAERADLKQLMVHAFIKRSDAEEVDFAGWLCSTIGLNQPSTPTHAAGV

| SMILES | IC50 [1] | IC50 [2] | IC50 [3] |
| --- | --- | --- | --- |
| Cc1cc(F)ccc1Oc1cc(=O)n(C)c(Nc2ccc(I)cc2F)c1C(N)=O [Example 22, 4-(4-fluoro-2-methylphenoxy)-2-((2-fluoro-4-iodophenyl)amino)-1-methyl-6-oxo-1,6-dihydropyridine-3-carboxamide] | 121 nM | 10.3 nM | 4.3 nM |
| Cc1ncccc1Oc1cc(=O)n(C)c(Nc2ccc(I)cc2F)c1C(N)=O [Example 29, 2-((2-fluoro-4-iodophenyl)amino)-1-methyl-4-((2-methylpyridin-3-yl)oxy)-6-oxo-1,6-dihydropyridine-3-carboxamide] | 217 nM | 8.9 nM | 3.6 nM |
| Cc1ccc(Oc2cc(=O)n(C)c(Nc3ccc(I)cc3F)c2C(N)=O)cn1 [Example 31, 2-((2-fluoro-4-iodophenyl)amino)-1-methyl-4-((6-methylpyridin-3-yl)oxy)-6-oxo-1,6-dihydropyridine-3-carboxamide] | 351 nM | 36.4 nM | 3.9 nM |
| CCS(=O)(=O)Nc1cccc(Oc2cc(=O)n(C)c(Nc3ccc(I)cc3F)c2C(N)=O)c1C [Example 3, 4-(3-(ethylsulfonamido)-2-methylphenoxy)-2-((2-fluoro-4-iodophenyl)amino)-1-methyl-6-oxo-1,6-dihydropyridine-3-carboxamide] | 19.8 nM | 0.06 nM | 4.1 nM |
| Cc1c(F)cccc1Oc1cc(=O)n(C)c(Nc2ccc(I)cc2F)c1C(N)=O [Example 1, 4-(3-fluoro-2-methylphenoxy)-2-((2-fluoro-4-iodophenyl)amino)-1-methyl-6-oxo-1,6-dihydropyridine-3-carboxamide] | 108 nM | 8.6 nM | 4.7 nM |
